# Assays:
# Format in all cases: cell-based
# [1] = tested on: MCF-7; assay: CT-Glo cytotoxicity assay, MCF-7 cells; conditions: Homo sapiens, MCF7, 72-h CT-Glo, average ± SD
# Protocol: (§1) The molecules with the highest docking scores were assayed for IC50 values. Cultures were tested for cytotoxicity using the CellTiter-Glo assay (CT-Glo cytotoxicity assay; Promega, Madison, Wis.), a luminescence-based homogeneous method for determining the number of viable cells in culture based on quantitation of the ATP present, which signals the presence of metabolically active cells (Corsino, et al., A novel class of cyclin-dependent kinase inhibitors identified by molecular docking act through a unique mechanism. J Biol Chem 2009; 284: 29945-55; Homsi, et al., Src activation in melanoma and Src inhibitors as therapeutic agents in melanoma. Melanoma Res 2009; 19: 167-75). All cells were assayed at log-phase growth conditions. Luminescence was measured with a Synergy 4 microplate reader (Bio-Tek Instruments, Inc., Winooski, Vt.). IC50 values were determined using a sigmoidal equilibrium model regression using XLfit version 5.2 (ID Business Solutions Ltd., Surrey, UK) (Corsino, et al., A novel class of cyclin-dependent kinase inhibitors identified by molecular docking act through a unique mechanism. J Biol Chem 2009; 284: 29945-55).
# [2] = biological target: T1, topo IIα (Homo sapiens, UniProt P11388); assay: Nuclear-cytoplasmic fractionation and Western blot for topo IIα; conditions: high-density RPMI-H929 cells, 25 μM, FIG. 13 legend
# T1 construct: effect on the intracellular location of topo IIα in treated MM cells; endogenous in cells; host or cells: human multiple myeloma cells NCI-H929
# T1 sequence (P11388 whole entry): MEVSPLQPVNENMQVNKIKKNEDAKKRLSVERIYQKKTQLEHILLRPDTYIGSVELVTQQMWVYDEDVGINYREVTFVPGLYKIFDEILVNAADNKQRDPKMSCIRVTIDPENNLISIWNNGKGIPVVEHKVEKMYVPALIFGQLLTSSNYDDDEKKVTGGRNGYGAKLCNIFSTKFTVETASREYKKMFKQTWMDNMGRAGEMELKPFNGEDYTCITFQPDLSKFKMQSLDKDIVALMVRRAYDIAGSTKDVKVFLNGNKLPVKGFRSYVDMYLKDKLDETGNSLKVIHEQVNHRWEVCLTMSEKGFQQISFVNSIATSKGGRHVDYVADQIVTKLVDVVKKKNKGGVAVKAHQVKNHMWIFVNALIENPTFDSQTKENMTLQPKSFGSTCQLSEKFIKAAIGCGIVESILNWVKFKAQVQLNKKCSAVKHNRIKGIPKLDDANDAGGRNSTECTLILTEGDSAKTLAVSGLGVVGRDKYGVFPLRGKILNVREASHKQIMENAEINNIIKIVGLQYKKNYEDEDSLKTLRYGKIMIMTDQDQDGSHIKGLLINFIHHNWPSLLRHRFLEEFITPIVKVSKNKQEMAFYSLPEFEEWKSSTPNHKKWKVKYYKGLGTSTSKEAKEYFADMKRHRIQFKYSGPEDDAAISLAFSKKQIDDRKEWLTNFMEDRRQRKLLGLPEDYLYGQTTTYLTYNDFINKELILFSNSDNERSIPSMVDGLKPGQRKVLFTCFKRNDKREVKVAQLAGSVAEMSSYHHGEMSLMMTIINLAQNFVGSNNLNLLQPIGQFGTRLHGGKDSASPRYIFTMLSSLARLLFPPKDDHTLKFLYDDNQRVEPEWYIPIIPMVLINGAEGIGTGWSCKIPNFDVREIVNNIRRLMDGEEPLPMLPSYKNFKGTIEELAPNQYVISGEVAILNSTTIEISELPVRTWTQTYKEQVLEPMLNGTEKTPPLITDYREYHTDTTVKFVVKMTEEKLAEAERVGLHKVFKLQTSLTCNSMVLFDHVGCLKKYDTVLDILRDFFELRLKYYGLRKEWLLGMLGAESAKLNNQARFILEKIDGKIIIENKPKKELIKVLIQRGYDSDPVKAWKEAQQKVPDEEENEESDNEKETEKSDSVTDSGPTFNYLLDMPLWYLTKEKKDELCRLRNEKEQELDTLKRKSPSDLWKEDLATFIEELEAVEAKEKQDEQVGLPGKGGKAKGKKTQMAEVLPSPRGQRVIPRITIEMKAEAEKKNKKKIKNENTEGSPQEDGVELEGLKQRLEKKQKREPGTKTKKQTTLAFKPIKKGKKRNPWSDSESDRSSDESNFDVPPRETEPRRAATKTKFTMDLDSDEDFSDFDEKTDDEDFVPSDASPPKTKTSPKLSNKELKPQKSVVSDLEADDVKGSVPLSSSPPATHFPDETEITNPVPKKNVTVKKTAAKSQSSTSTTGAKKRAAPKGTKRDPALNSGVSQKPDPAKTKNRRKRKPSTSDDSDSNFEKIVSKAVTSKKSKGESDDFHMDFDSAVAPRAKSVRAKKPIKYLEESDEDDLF
# Protocol: FIGS. 13(A) and (B) are blots from nuclear (nuc)-cytoplasmic (cyto) fractionation of high-density MM cells (n=2). […] Human myeloma RPMI-H929 cells were treated for 24 hours. Cells were then chemically separated into nuclear and cytoplasmic fractions.
# Human myeloma cells were placed at plateau concentrations (4×10^6 cells/ml), and NES inhibitors were added at 25 μM for 20 hours. Cells were collected, washed in PBS, and fractionated by a method adapted from Li et al. (Li Y, Bor Y C, Misawa Y, Xue Y, Rekosh D, Hammarskjold M L. An intron with a constitutive transport element is retained in a Tap messenger RNA. Nature 2006; 443: 234-7). Separated fractions containing nuclei or precipitated cytosol were dissolved in 2% SDS buffer and assayed by SDS-PAGE Western blot analysis. Blots were probed with an anti-topo IIα Kis1 antibody (Millipore Corp.). […] Cells grown at log-phase concentrations were also fractionated. After MM cells were treated with NCI-9138 at 25 μM for 20 hours, CRM1-topo IIα complexes were isolated from cells by immunoprecipitation using a combination of both protein A and protein G magnetic beads according to the manufacturer's protocol (Miltenyi Biotec, Cologne, Germany). Co-immunoprecipitation was performed with 2 μg of anti-CRM1 antibody (Santa Cruz Biotechnology, Inc., Santa Cruz, Calif.). Immunoprecipitation samples were separated by SDS-PAGE, transferred to nitrocellulose membranes, and probed with anti-topo IIα Kis1 antibody (Millipore, Corp., Billerica, Mass.) and anti-mouse horseradish peroxidase secondary antibody.
# [3] = tested on: SK-UT; assay: CT-Glo cytotoxicity assay, SK-UT cells; conditions: 72-h CT-Glo, average ± SD
# Protocol: as §1
smiles,measurement,setting,value
"O=C1c2ccccc2C(=O)C1C(=O)C(c1ccccc1)c1ccccc1 [NCI-9138, 2-(diphenylacetyl)-1H-indene-1,3(2H)-dione]",IC50,[1],27.2 µM
same,"Export of topo IIα, nuclear-cytoplasmic fractionation",[2],strongly blocked export of topo IIα
same,IC50,[3],29.2 µM

# — patent publication US9616051B2, “Drug targets to overcome de novo drug-resistance in multiple myeloma” (H. Lee Moffitt Cancer Center and Research Institute, Inc., priority 2008, dated 2017)
